The NIST ThermoML archive (doi:10.1021/acs.jced.8b00466)
± gives the expanded uncertainty stated by the source.

Assay: wn = mass fraction of the nth substance listed
Details: 102 kPa, Liquid, Vibrating tube method

O=S(=O)(O)O [sulfuric acid] + O
mass density (273.15 K, w1 = 0.0966): 1069.26 ± 16 kg/m3
mass density (273.15 K, w1 = 0.1151): 1085.84 ± 15 kg/m3
mass density (273.15 K, w1 = 0.1365): 1101.81 ± 15 kg/m3
mass density (273.15 K, w1 = 0.1536): 1114.2 ± 16 kg/m3
mass density (273.15 K, w1 = 0.1728): 1128.95 ± 15 kg/m3
mass density (273.15 K, w1 = 0.192): 1145.91 ± 16 kg/m3
mass density (273.15 K, w1 = 0.2112): 1159.41 ± 17 kg/m3
mass density (273.15 K, w1 = 0.2304): 1177.19 ± 17 kg/m3
mass density (273.15 K, w1 = 0.2409): 1185.57 ± 17 kg/m3
mass density (273.15 K, w1 = 0.2688): 1209.44 ± 17 kg/m3
mass density (273.15 K, w1 = 0.288): 1224.11 ± 17 kg/m3
mass density (273.15 K, w1 = 0.3072): 1241.05 ± 16 kg/m3
mass density (273.15 K, w1 = 0.3265): 1256.77 ± 17 kg/m3
mass density (273.15 K, w1 = 0.3457): 1272.18 ± 17 kg/m3
mass density (273.15 K, w1 = 0.3648): 1288.04 ± 17 kg/m3
mass density (273.15 K, w1 = 0.384): 1305.68 ± 18 kg/m3
mass density (273.15 K, w1 = 0.4): 1319.14 ± 18 kg/m3
mass density (283.15 K, w1 = 0.0966): 1066.08 ± 16 kg/m3
mass density (283.15 K, w1 = 0.1151): 1082.07 ± 15 kg/m3
mass density (283.15 K, w1 = 0.1365): 1097.5 ± 15 kg/m3
mass density (283.15 K, w1 = 0.1536): 1109.5 ± 15 kg/m3
mass density (283.15 K, w1 = 0.1728): 1123.83 ± 15 kg/m3
mass density (283.15 K, w1 = 0.192): 1140.32 ± 16 kg/m3
mass density (283.15 K, w1 = 0.2112): 1153.51 ± 16 kg/m3
mass density (283.15 K, w1 = 0.2304): 1170.92 ± 16 kg/m3
mass density (283.15 K, w1 = 0.2409): 1179.14 ± 17 kg/m3
mass density (283.15 K, w1 = 0.2688): 1201.63 ± 16 kg/m3
mass density (283.15 K, w1 = 0.288): 1217.14 ± 16 kg/m3
mass density (283.15 K, w1 = 0.3072): 1233.47 ± 16 kg/m3
mass density (283.15 K, w1 = 0.3265): 1249.51 ± 17 kg/m3
mass density (283.15 K, w1 = 0.3457): 1264.81 ± 17 kg/m3
mass density (283.15 K, w1 = 0.3648): 1280.59 ± 17 kg/m3
mass density (283.15 K, w1 = 0.384): 1298.19 ± 17 kg/m3
mass density (283.15 K, w1 = 0.4): 1311.55 ± 18 kg/m3
mass density (293.15 K, w1 = 0.0966): 1062.3 ± 15 kg/m3
mass density (293.15 K, w1 = 0.1151): 1077.83 ± 14 kg/m3
mass density (293.15 K, w1 = 0.1365): 1092.86 ± 14 kg/m3
mass density (293.15 K, w1 = 0.1536): 1104.52 ± 15 kg/m3
mass density (293.15 K, w1 = 0.1728): 1118.46 ± 15 kg/m3
mass density (293.15 K, w1 = 0.192): 1134.59 ± 16 kg/m3
mass density (293.15 K, w1 = 0.2112): 1147.52 ± 16 kg/m3
mass density (293.15 K, w1 = 0.2304): 1164.6 ± 16 kg/m3
mass density (293.15 K, w1 = 0.2409): 1172.69 ± 16 kg/m3
mass density (293.15 K, w1 = 0.2688): 1194.85 ± 16 kg/m3
mass density (293.15 K, w1 = 0.288): 1210.18 ± 16 kg/m3
mass density (293.15 K, w1 = 0.3072): 1227.15 ± 16 kg/m3
mass density (293.15 K, w1 = 0.3265): 1242.27 ± 16 kg/m3
mass density (293.15 K, w1 = 0.3457): 1257.51 ± 17 kg/m3
mass density (293.15 K, w1 = 0.3648): 1273.21 ± 17 kg/m3
mass density (293.15 K, w1 = 0.384): 1290.73 ± 17 kg/m3
mass density (293.15 K, w1 = 0.4): 1304.07 ± 18 kg/m3
mass density (298.15 K, w1 = 0.0966): 1060.23 ± 15 kg/m3
mass density (298.15 K, w1 = 0.1151): 1075.55 ± 14 kg/m3
mass density (298.15 K, w1 = 0.1365): 1090.39 ± 14 kg/m3
mass density (298.15 K, w1 = 0.1536): 1101.94 ± 15 kg/m3
mass density (298.15 K, w1 = 0.1728): 1115.73 ± 15 kg/m3
mass density (298.15 K, w1 = 0.192): 1131.69 ± 16 kg/m3
mass density (298.15 K, w1 = 0.2112): 1144.52 ± 16 kg/m3
mass density (298.15 K, w1 = 0.2304): 1161.54 ± 16 kg/m3
mass density (298.15 K, w1 = 0.2409): 1169.48 ± 16 kg/m3
mass density (298.15 K, w1 = 0.2688): 1191.58 ± 16 kg/m3
mass density (298.15 K, w1 = 0.288): 1206.76 ± 16 kg/m3
mass density (298.15 K, w1 = 0.3072): 1223.62 ± 16 kg/m3
mass density (298.15 K, w1 = 0.3265): 1238.85 ± 16 kg/m3
mass density (298.15 K, w1 = 0.3457): 1253.89 ± 17 kg/m3
mass density (298.15 K, w1 = 0.3648): 1269.57 ± 17 kg/m3
mass density (298.15 K, w1 = 0.384): 1287.05 ± 17 kg/m3
mass density (298.15 K, w1 = 0.4): 1300.36 ± 18 kg/m3
mass density (303.15 K, w1 = 0.0966): 1058.04 ± 15 kg/m3
mass density (303.15 K, w1 = 0.1151): 1073.22 ± 14 kg/m3
mass density (303.15 K, w1 = 0.1365): 1087.86 ± 14 kg/m3
mass density (303.15 K, w1 = 0.1536): 1099.31 ± 15 kg/m3
mass density (303.15 K, w1 = 0.1728): 1112.95 ± 14 kg/m3
mass density (303.15 K, w1 = 0.192): 1128.88 ± 15 kg/m3
mass density (303.15 K, w1 = 0.2112): 1141.48 ± 16 kg/m3
mass density (303.15 K, w1 = 0.2304): 1158.39 ± 15 kg/m3
mass density (303.15 K, w1 = 0.2409): 1166.27 ± 16 kg/m3
mass density (303.15 K, w1 = 0.2688): 1188.22 ± 16 kg/m3
mass density (303.15 K, w1 = 0.288): 1203.33 ± 16 kg/m3
mass density (303.15 K, w1 = 0.3072): 1220.11 ± 16 kg/m3
mass density (303.15 K, w1 = 0.3265): 1235.29 ± 16 kg/m3
mass density (303.15 K, w1 = 0.3457): 1250.3 ± 17 kg/m3
mass density (303.15 K, w1 = 0.3648): 1265.94 ± 17 kg/m3
mass density (303.15 K, w1 = 0.384): 1283.37 ± 17 kg/m3
mass density (303.15 K, w1 = 0.4): 1296.68 ± 18 kg/m3
mass density (313.15 K, w1 = 0.0966): 1053.6 ± 15 kg/m3
mass density (313.15 K, w1 = 0.1151): 1068.89 ± 13 kg/m3
mass density (313.15 K, w1 = 0.1365): 1082.6 ± 13 kg/m3
mass density (313.15 K, w1 = 0.1536): 1093.86 ± 14 kg/m3
mass density (313.15 K, w1 = 0.1728): 1107.33 ± 14 kg/m3
mass density (313.15 K, w1 = 0.192): 1123.78 ± 15 kg/m3
mass density (313.15 K, w1 = 0.2112): 1135.36 ± 16 kg/m3
mass density (313.15 K, w1 = 0.2304): 1152.03 ± 15 kg/m3
mass density (313.15 K, w1 = 0.2409): 1160.54 ± 16 kg/m3
mass density (313.15 K, w1 = 0.2688): 1181.52 ± 16 kg/m3
mass density (313.15 K, w1 = 0.288): 1196.6 ± 16 kg/m3
mass density (313.15 K, w1 = 0.3072): 1213.75 ± 16 kg/m3
mass density (313.15 K, w1 = 0.3265): 1228.03 ± 16 kg/m3
mass density (313.15 K, w1 = 0.3457): 1243.38 ± 16 kg/m3
mass density (313.15 K, w1 = 0.3648): 1258.73 ± 17 kg/m3
mass density (313.15 K, w1 = 0.384): 1276.2 ± 17 kg/m3
mass density (313.15 K, w1 = 0.4): 1289.37 ± 18 kg/m3
mass density (323.15 K, w1 = 0.0966): 1049.23 ± 15 kg/m3
mass density (323.15 K, w1 = 0.1151): 1063.56 ± 14 kg/m3
mass density (323.15 K, w1 = 0.1365): 1078.45 ± 13 kg/m3
mass density (323.15 K, w1 = 0.1536): 1089.88 ± 14 kg/m3
mass density (323.15 K, w1 = 0.1728): 1101.93 ± 14 kg/m3
mass density (323.15 K, w1 = 0.192): 1118.59 ± 15 kg/m3
mass density (323.15 K, w1 = 0.2112): 1129.37 ± 15 kg/m3
mass density (323.15 K, w1 = 0.2304): 1148.5 ± 15 kg/m3
mass density (323.15 K, w1 = 0.2409): 1154.05 ± 16 kg/m3
mass density (323.15 K, w1 = 0.2688): 1174.82 ± 16 kg/m3
mass density (323.15 K, w1 = 0.288): 1189.76 ± 16 kg/m3
mass density (323.15 K, w1 = 0.3072): 1206.84 ± 16 kg/m3
mass density (323.15 K, w1 = 0.3265): 1221.02 ± 16 kg/m3
mass density (323.15 K, w1 = 0.3457): 1236.27 ± 16 kg/m3
mass density (323.15 K, w1 = 0.3648): 1251.57 ± 17 kg/m3
mass density (323.15 K, w1 = 0.384): 1268.99 ± 17 kg/m3
mass density (323.15 K, w1 = 0.4): 1282.4 ± 18 kg/m3
mass density (333.15 K, w1 = 0.0966): 1043.53 ± 15 kg/m3
mass density (333.15 K, w1 = 0.1151): 1058.71 ± 13 kg/m3
mass density (333.15 K, w1 = 0.1365): 1072.64 ± 13 kg/m3
mass density (333.15 K, w1 = 0.1536): 1084.63 ± 14 kg/m3
mass density (333.15 K, w1 = 0.1728): 1095.88 ± 14 kg/m3
mass density (333.15 K, w1 = 0.192): 1113.22 ± 15 kg/m3
mass density (333.15 K, w1 = 0.2112): 1124.62 ± 15 kg/m3
mass density (333.15 K, w1 = 0.2304): 1140.31 ± 15 kg/m3
mass density (333.15 K, w1 = 0.2409): 1147.47 ± 15 kg/m3
mass density (333.15 K, w1 = 0.2688): 1168.95 ± 16 kg/m3
mass density (333.15 K, w1 = 0.288): 1183.88 ± 16 kg/m3
mass density (333.15 K, w1 = 0.3072): 1200.67 ± 16 kg/m3
mass density (333.15 K, w1 = 0.3265): 1214.92 ± 16 kg/m3
mass density (333.15 K, w1 = 0.3457): 1230.89 ± 16 kg/m3
mass density (333.15 K, w1 = 0.3648): 1244.44 ± 16 kg/m3
mass density (333.15 K, w1 = 0.384): 1263.24 ± 17 kg/m3
mass density (333.15 K, w1 = 0.4): 1275.2 ± 18 kg/m3
